Experimental data taken from patent publication US20230097883A1, “ERGOTHIONEINE PET COMPOUNDS AND METHODS OF USE THEREOF” (VANDERBILT UNIVERSITY, priority 2021, published 2023).

Tests used:
Format in all cases: in vivo, mouse
[1] = 90-minute dynamic PET scanning of [11C]ERGO biodistribution in the brain of 5XFAD mice
Experimental: The dynamic acquisition was divided into twelve 5 sec frames, four 60 sec frames, five 120 sec frames, three 5 min frames, and six 10 min scans. The data from all possible lines of response (LOR) were saved in the list mode raw data format. The raw data were then binned into 3D sinograms with a span of 3 and ring difference of 47. The images were reconstructed into transaxial slices (128×128×159) with voxel sizes of 0.0815×0.0815×0.0796 cm^3, using the MAP algorithm with 16 subsets, 4 iterations, and a beta of 0.0468. For anatomical co-registration, immediately following the PET scans, the mice received a CT scan in a NanoSPECT/CT (Mediso, Wash. D.C.) at an X-ray beam intensity of 90 mAs and x-ray peak voltage of 45 kVp. The CT images were reconstructed into 170×170×186 voxels at a voxel size of 0.4×0.4×0.4 mm^3. The PET/CT images were uploaded into Amide software (www.sourceforge.com), co-registered to an MRI template made in-house, and volumetric regions-of-interest were drawn around the cortex, hippocampus, striatum, thalamus, and cerebellum in addition to the whole brain. The PET images were normalized to the injected dose, and the time-activity-curves (TACs) of the mean activity within the ROIs were estimated for the entire duration of the scans.
To test the distribution of ERGO non-invasively in vivo, approximately 37 MBq/0.1 mL of [^11C]ERGO probe was given to anesthetized 5XFAD mice (8-month-old, n=4) in single bolus intravenous (I.V.) injection via the lateral tail vein. The administration of the probe was simultaneous with the start of a 90-minute dynamic PET imaging, followed by subsequent CT scan. The PET images were normalized to the injected dose, and the time-activity-curves (TACs) of the mean activity within the ROIs were estimated for the entire duration of the scans. Within 5 min post I.V. injection, [^11C]ERGO can be detected in the brain parenchyma (FIG. 1.5A, top panel). […] Using an age-matched mouse brain template, the positron-emitted signal at different brain regions was quantified using AMIDE software. […]

oxidative stress = assay: PET imaging of LPS-induced neuroinflammation with [11C]ERGO radioligand, with Tempol blocking; conditions: LPS 5 mg/Kg i.p. 24 h before; 20 MBq/0.1 mL I.V.; 30 min scan from 10 min after injection
Experimental: The mice were injected with ˜20 MBq/0.1 ml 11C-ERGO via the tail vein and returned to their cages for 10 min. Then they were anesthetized with 2% isofluorane and imaged in an Inveon microPET (Siemens Pre-clinical, Knoxville, Tenn., USA) for 30 min in static mode followed by a CT scan using a NanoSPECT/CT (Mediso, Wash. D.C.) at an x-ray beam intensity of […] and x-ray voltage of 45 kVp. PET images were reconstructed using the iterative MAP reconstruction algorithm with 18 iterations and a beta smoothing value of 0.001 into 128×128×95 slices with a voxel size of 0.388 mm×0.388 mm×0.796 mm. The CT images were reconstructed into 170×170×126 slices at a voxel size of 0.4×0.4×0.4 mm^3. The PET and CT images were co-registered using the imaging tool AMIDE.
The mouse model of LPS-induced neuroinflammation was developed based on past reports. The LPS derived from Escherichia coli […] (Sigma Aldrich, St Louis, Mo.) was formulated in sterilized dd. water and given a high dose of LPS formulation (5 mg/Kg) through intraperitoneal injection 24 h before PET imaging. This high dose would result in approximately 12-13% body weight loss over the course of 24 h. After PET imaging, animals were sacrificed, and the brains were collected for histology analysis.
The reported LPS mouse model of neuroinflammation in the past was reproduced for the validation of the specificity of the probe. […]

glucose metabolism = assay: [18F]FDG PET imaging of glucose metabolism after ERGO treatment; conditions: 6-month-old 5XFAD, ERGO 6 doses each 50 mg/Kg during 2 weeks, versus non-treated 5XFAD, n=3
Experimental: The brain consumes a significant amount of glucose, approximately 25% of the body's glucose. It is well known that glucose metabolism is diminished in the early onset of AD. Therefore, [^18F]FDG PET imaging to assess glucose levels could be used for AD diagnosis. For this purpose, three cohorts of age-matched mice (6-month-old, n=3 for each cohort), including WT, non-treated 5XFAD and ERGO-treated 5XFAD (6 doses, each 50 mg/Kg during the course of 2 weeks) were studied. Afterward, animals were injected with [^18F]FDG probe (15 MBq, 100 μL/mouse) and underwent […] dynamic PET scans and CT scans.
The dynamic acquisition was divided into twelve 5-second frames, four 60-second frames, five 120-second frames, three 5-min frames, and six 10-min scans. The data from all possible lines of response (LOR) were saved in the list mode raw data format. The raw data were then binned into 3D sinograms with a span of 3 and ring difference of 47. The images were reconstructed into transaxial slices (128×128×159) with voxel sizes of 0.0815×0.0815×0.0796 cm^3, using the MAP algorithm with 16 subsets, 4 iterations, and a beta of 0.0468. For anatomical co-registration, immediately following the PET scans, the mice received a CT scan in a NanoSPECT/CT (Mediso, Wash. D.C.) at an X-ray beam intensity of 90 mAs and x-ray peak voltage of 45 kVp. […]

Structure (SMILES) | time post I.V. injection at which the probe can be detected in the brain parenchyma ([1]; 8-month-old, approx. 37 MBq/0.1 mL single I.V. bolus) [min] | retention of the probe in the brain ([1]; 30 min post radiotracer injection) | regional distribution of the probe in the brain (PET signal) ([1]; approx. 37 MBq/0.1 mL I.V., 90-min dynamic PET) | PET signal in brain regions, LPS-treated versus nontreated WT mice (oxidative stress) | glucose levels in the brain ([18F]FDG uptake, SUV) (glucose metabolism)
C[N+](C)([11CH3])[C@@H](Cc1c[nH]c(=S)[nH]1)C(=O)[O-] [[^11C]ERGO] | ≤ 5 | still remained in the brain | high concentration in the cerebellum and cortex | stronger than that from nontreated counterparts across every major region of the brain | –
C[N+](C)(C)[C@@H](Cc1c[nH]c(=S)[nH]1)C(=O)[O-] [ERGO, L-ergothioneine] | – | – | – | – | significantly elevated
